Source: patent publication US6087120A, “Measurement of complement activation by biomaterials by means of complement convertase cleavage of peptide substrates” (HaemoProbe B.V., priority 1996, dated 2000)
“Also recorded” adds a separate entry of the source. Peptide text beside a SMILES is read from it. * marks the point of attachment. pNA = O=[N+]([O-])c1ccc(N*)cc1; Boc = CC(C)(C)OC(=O)*; Bz = O=C(c1ccccc1)*

What was measured:
Type in all cases: biochemical, Human
[1] = tested on: C5-convertase; assay: Complement convertase released in incubated def PPP: cleavage of H- or Bz-Leu-Gly-Arg-pNA, OD 405 nm; details: for substrate cleavage in the incubated plasma solution: def PPP after incubation with PDMS, 60 hours, FIG. 3a; for specificity of the substrate for complement activation: judged from the effect of EDTA and enzyme inhibitors on cleavage, FIG. 6
Description: (§1) Human blood was collected from a healthy volunteer by vena puncture. Blood was mixed immediately with sodium citrate (0.316%, final concentration) to prevent clotting. Then blood was centrifuged (1100 xg) to obtain separation between plasma and blood cells. In our experiments we used this citrated human plasma after treatment with reptilase to coagulate fibrinogen. This plasma, deficient of fibrinogen (def PPP), contains the other coagulation components and can be mixed with Ca^++ containing buffer to optimize complement activation. This def PPP was stored in aliquots at -80° C. We diluted this in 50 mM TRIS buffer+33 mM CaCl2 (pH 7.4) to a percentage of 20% prior to use. The biomaterial PDMS (polydimethyl-siloxane, silicon rubber) was cut into 1 cm^2 pieces. For cleaning the biomaterial it was incubated at first in 70% ethanol, and then rinsed in 0.9% NaCl. During the experiment the pieces of biomaterials were incubated in 500 μl diluted def PPP during 0, 10, 30, or 60 min at room temperature. After incubation, the biomaterials were rinsed 3 times with saline. Then the biomaterials were incubated in BOC-Leu-Gly-Arg-pNA, diluted in TRIS buffer +33 mM CaCl2, during 60 hours at room temperature in the dark. Simultaneously, also 100 μl def PPP, in which the biomaterials had been incubated, were mixed with 100 μl of H-Leu-Gly-Arg-pNA or Bz-Leu-Gly-Arg-pNA, diluted in TRIS buffer, supplemented with 33 mM CaCl2. After these 60 hours the OD was measured at 405 nm in a spectrophotometer (microplate reader 3550 UV; Biorad, Richmond, Calif., USA).
In a second experiment the incubated def PPP was incubated in the presence of Ca^++ as described above and 100 μl def PPP was collected after 30 minutes. Then this collected def PPP was incubated with H-Leu-Gly-Arg-pNA and Bz-Leu-Gly-Arg-pNA in the presence of Ca^++ or in the absence of Ca^++ with EDTA.

[2] = tested on: complement convertase; assay: Effect of enzyme inhibitors or EDTA present during incubation of PDMS in def PPP on convertase formation; details: for inhibition of substrate conversion by inhibitor added prior to incubation: PDMS in def PPP aliquots, substrate H-Leu-Gly-Arg-pNA, FIG. 6
Procedure: To verify the specificity of complement convertase activity, PDMS was incubated with diluted def PPP supplemented with Ca^++ (allowing convertases to be formed) or with EDTA (preventing convertase formation).
A number of enzyme inhibitors was used to further specify the complement convertase test of the incubated def PPP with substrate H-Leu-Gly-Arg-pNA.During incubation with PDMS in different aliquots a specific thrombin inhibitor (I2581, Kabi), C1 esterase inhibitor (Sigma), the plasmin/kallikrein/chymotrypsin inhibitor aprotinin (Bayer) and EDTA was used.

[3] = tested on: C5-convertase; assay: Complement convertase bound to biomaterial surface: cleavage of BOC-Leu-Gly-Arg-pNA, OD 405 nm; details: washed PDMS after incubation in def PPP; 60 hours; FIG. 3a
Procedure: as §1, with “Blood was mixed immediately with sodium citrate (0.316%, final concentration) to prevent clotting.” left out, “CaCl2.” for “CaCl2. After these 60 hours the OD was measured at 405 nm in a spectrophotometer (microplate reader 3550 UV; Biorad, Richmond, Calif., USA).”

CC(C)C[C@H](NC(=O)c1ccccc1)C(=O)NCC(=O)N[C@@H](CCCNC(=N)N)C(=O)Nc1ccc([N+](=O)[O-])cc1 [Bz-Leu-Gly-Arg-pNA] (Bz-Leu-Gly-Arg-pNA)
substrate cleavage in the incubated plasma solution [1]: effective in the plasma solution; also recorded: colour formation | specificity of the substrate for complement activation ([1]; FIG. 4a): not reduced by EDTA; also recorded: considered non-specific

aprotinin
inhibition of substrate conversion by inhibitor added prior to incubation [2]: did not inhibit substrate conversion; also recorded: then aprotinin

CC(C)C[C@H](N)C(=O)NCC(=O)N[C@@H](CCCNC(=N)N)C(=O)Nc1ccc([N+](=O)[O-])cc1 [H-Leu-Gly-Arg-pNA] (H-Leu-Gly-Arg-pNA)
substrate cleavage in the incubated plasma solution [1]: effective in the plasma solution; also recorded: colour formation | specificity of the substrate for complement activation ([1]; FIG. 4a): complement dependent

O=C(O)CN(CCN(CC(=O)O)CC(=O)O)CC(=O)O [EDTA, ethylenediamine tetra-acetic acid, reference compound]
effect of EDTA during substrate cleavage (second incubation) on formed convertases ([1]; def PPP collected after 30 min with PDMS, EDTA added with the substrate, FIG. 4a): did not prevent substrate cleavage by formed complexes; also recorded: formed convertases remained active in EDTA | inhibition of substrate conversion by inhibitor added prior to incubation [2]: almost completely prevented substrate conversion; also recorded: best inhibitor | convertase formation with EDTA instead of Ca++ during incubation ([2]; PDMS in diluted def PPP supplemented with Ca++ or EDTA): completely prevented convertase formation

CC(C)C[C@H](NC(=O)OC(C)(C)C)C(=O)NCC(=O)N[C@@H](CCCNC(=N)N)C(=O)Nc1ccc([N+](=O)[O-])cc1 [BOC-Leu-Gly-Arg-pNA] (Boc-Leu-Gly-Arg-pNA)
substrate cleavage on the PDMS surface [3]: most effective on the PDMS surface; also recorded: colour formation
